According to patent US11135316B2, “Imaging and treatment of pathophysiologic conditions by Cerenkov radiation” (priority 2014, dated 2021):

Legend:
[1] = system: mitochondrial membrane potential; assay: Mitochondrial membrane potential assay (Mitotracker Green); format: cell-based; conditions: coincubated with FDG
Procedure: For measuring mitochondrial membrane potential, Mitotracker Green (Life Technologies Inc.) was used according to manufacturer's instructions. Staurosporine (2 μM; Sigma Aldrich Co.) was used as positive control. Fluorescence readout was performed using a plate reader using excitation/emission wavelengths of 490/516 nm.

HT1080 tumors = format: in vivo, mice; conditions: i.v. with FDG, monitored 15 days
From the text: Tumor volume was registered every alternate day for 15 days.

HT1080 cells [2] = system: HT1080 cells
Procedure: FIG. 7A and FIG. 7B depict the effect of photosensitive particles and radionuclides on cell viability. […] The control group was considered to be 100% viable. […] HT1080 cells were used and the values are means±s.e.m. (experiments for each group were run in triplicates).
The MTS (3-(4,5-di methylthiazol-2-yl)-5-(3-carboxymethoxyphenyl)-2-(4-sulfophenyl)-2H-tetrazolium) assay, a colorimetric assay for assessing cell viability was performed using the CellTiter 96® AQueous Non-Radioactive Cell Proliferation Assay kit (Promega Co.) according to the manufacturer's instructions.

HT1080 cell line = conditions: expected result of planned assay
HT1080 cells [3] = assay: Lipid peroxidation assay (BODIPY 581/591 C11); format: cell-based
Procedure: BODIPY® 581i591 C11 reagent (Life Technologies Inc.) was used to quantitatively determine the degree of lipid peroxidation. It is a ratiometric fluorescence technique that relies on oxidation of lipids to shift fluorescence emission peak from 590 nm to 510 nm. […] All the compounds were incubated for 6 h at 37° C. Finally, the BODIPY-based dye (10 μM) was added and incubated for 30 min at 37° C. After washing the cells with PBS three times, the plate was analysed using a Synergy HT multimode plate reader (BioTek Instruments Inc., Winooski, USA) with excitation/emission of 581/591 nm for the reduced dye and at 488/510 nm for the oxidized dye. The ratio of the fluorescence intensities at 590/510 nm was plotted to derive the ratio of fluorescence change.

cells = conditions: literature; cited from earlier work
HT1080 tumor = conditions: mouse, in vivo
4T1 and HT1080 tumor = conditions: mouse, in vivo
From the text: The studies were commenced when tumor volume reached 500 mm^3. […] The animals were euthanized subsequently and major organs dissected and imaged in the same channel. Image J was used to quantitate fluorescence intensity by drawing regions of interest encompassing entire organs.

Titanocene dichloride [Tc]
mitochondrial membrane potential [1]: significant decrease in mitochondrial membrane potential
tumor volume, fold smaller compared to controls (HT1080 tumors): four-fold
concentration that did not induce apoptosis (HT1080 cells [2]): < 10000 ng/mL
LD50 Tc concentration, fold lower with CR than without FDG (HT1080 cell line): at least 4 fold
peroxidation of cellular lipids (HT1080 cells [3]; with FDG): induced significant peroxidation and degradation of cellular lipids
concentration known to induce apoptosis in cells (cells): ≥ 12500 ng/mL

titanium dioxide [TiO2]
concentration at which TiO2 particles did not induce apoptosis (HT1080 cells [2]): < 0.004 ng/mL
concentration that did not induce apoptosis (HT1080 cells [2]): < 4000 ng/mL

Cc1c(C)c2c(c(C)c1O)CCC(C)(C(=O)O)O2 (centres unmarked) [Trolox, reference compound]
effect of peroxyl radical scavenger on lipid peroxidation (HT1080 cells [3]; added to Tc and FDG): adequately inhibited this process

Tf: transferrin, tumor targeting protein; Alexa 680 labeled for biodistribution
tumor to muscle ratio (HT1080 tumor): 5.3
tumor:muscle ratio (4T1 and HT1080 tumor): 5.5
